Data taken from patent publication US20130023504A1, “Modulation of Prostaglandin/Cyclooxygenase Metabolic Pathways” (HUNTER-FLEMING LIMITED, priority 2006, published 2013).
Marks after values point to notes of the source that are not given here.

How the values were obtained:
Assay type in all cases: cell-based
Settings in all cases: without TNF-α
[1] = test system: m-PGES1 mRNA; test: m-PGES1 mRNA in human PBMC with and without TNF-α, quantitative RT-PCR
Experimental: (§1) Whole blood was collected from donors in EDTA-supplemented pouches at the Etablissement Français du Sang (Brest, France). The PBMC were isolated then from whole blood under sterile conditions within 36 hours after collection. Gradient density centrifugation was carried out on Ficoll (Eurobio). After washing in RPMI 1640 medium (Eurobio), cells were suspended in RPMI 1640 medium supplemented with 10% heat-inactivated fetal calf serum (Eurobio), 2 mM glutamine (D. Dutscher), 100 U of penicillin/ml (D. Dutscher), and 100 μg of streptomycin/ml (D. Dutscher). Monocytes were selected by plastic adherence for 1 h and approximately 10^7 cells were plated in 6-well tissue culture plates (3 mL medium per well). All incubations were performed in a humidified incubator at 37° C. and 5% CO2. Cells were recovered and dispersed in 2 ml fresh incubation medium supplemented with either 7β-hydroxyEPIA, 7β-hydroxy-DHEA, or 7α-hydroxy-DHEA (in 20 μL ethanol) in the presence or absence of 0.01 μg/mL TNF-α (Sigma-Aldrich). Control incubations contained 20 μl ethanol but no steroid. Supernatants were collected after 4 h and 24 hours incubations for measurement of their PG contents and cells were used for subsequent RNA isolation. A single step extraction method using the Trizol Reagent (Invitrogen, Cergy-Pontoise, France) provided total RNA.
(§2) cDNAs were synthesized from TURBO DNase I—treated RNA (Ambion, Huntingdon, UK) using the Superscript first strand synthesis system kit (Invitrogen). RT-PCR amplification mixtures (50 μL) contained 2.5× RealMaster Mix/20×SYBR solution (11.25 μL) (Eppendorf, Le Pecq, France) and 200 nM forward and reverse primers. Reactions were run on a RealPlex ep gradient S mastercycler (Eppendorf). The cycling conditions were 10 minutes at 95° C. and 45 cycles at 95° C., 55° C. and 68° C. for 15 seconds, 30 seconds and 30 seconds, respectively. Each assay included a standard curve of four serial dilution points of control cDNA. The HPRT1 housekeeping gene was used for quantification. All oligonucleotide primers (Table 2) were synthesized by Genecust/Distribio (Evry, France). The specificity of the amplified product was monitored by examining the melting curve of the product and confirmed by analysis on agarose gel electrophoresis.
(§3) All assays were carried out in triplicate and results were plotted as mean±S.E.M. One-way analysis of variance was performed followed by Duncan's multiple range tests in order to compare the differences between groups. Differences were considered statistically significant when p<0.05.

[2] = test system: COX-2 mRNA; test: COX-2 mRNA in human PBMC with and without TNF-α, quantitative RT-PCR
Experimental: as §1, §2, §3

[3] = test system: human PBMC; test: PG levels (PGE2, PGD2, 15d-PGJ2) in culture medium of human PBMC cultured with and without TNF-α, EIA (Example 3)
Experimental: as §1
Commercially available EIA kits were used for the determination of PGE2 levels (Oxford Biomedical Research, UK) and 15d-PGJ2 levels (Assay designs, Euromedex, France) in culture media. Measurement of PGD2 levels was obtained using the prostaglandin D2-MOX EIA kit (Cayman Chemical, Euromedex). In this case, and prior to assay, the fresh samples were immediately treated with the MOX-HCl reagent, which converted PGD2 into PGD2-MOX, thus preventing any further chemical degradation.
as §3

CC12CCC3C(C1CCC2=O)[C@@H](O)C=C1C[C@@H](O)CCC13C (stereo partly drawn) [7β-hydroxy-DHEA]
mPGES1 (mRNA), mRNA production relative to controls ([1]; 1 nM, 4 h): 0.43 ± 0.057^b
mPGES1 (mRNA), mRNA production relative to controls ([1]; 1 nM, 24 h): 1.94 ± 0.422^a
mPGES1 (mRNA), mRNA production relative to controls ([1]; 10 nM, 4 h): 0.67 ± 0.071^b
mPGES1 (mRNA), mRNA production relative to controls ([1]; 10 nM, 24 h): 1.64 ± 0.338^a
mPGES1 (mRNA), mRNA production relative to controls ([1]; 100 nM, 4 h): 0.82 ± 0.085^b
mPGES1 (mRNA), mRNA production relative to controls ([1]; 100 nM, 24 h): 1.64 ± 0.322^a
COX-2 (mRNA), mRNA production relative to controls ([2]; 1 nM, 4 h): 1.20 ± 0.179
COX-2 (mRNA), mRNA production relative to controls ([2]; 1 nM, 24 h): 1.76 ± 0.672
COX-2 (mRNA), mRNA production relative to controls ([2]; 10 nM, 4 h): 1.33 ± 0.039
COX-2 (mRNA), mRNA production relative to controls ([2]; 10 nM, 24 h): 1.54 ± 0.630
COX-2 (mRNA), mRNA production relative to controls ([2]; 100 nM, 4 h): 5.09 ± 1.166^a
COX-2 (mRNA), mRNA production relative to controls ([2]; 100 nM, 24 h): 2.78 ± 0.580^a
15d-PGJ2 ([3]; 1 nM, 4 h): 0.45 ± 0.016 ng/mL
PGD2 ([3]; 1 nM, 4 h): 0.18 ± 0.002 ng/mL
PGE2 ([3]; 1 nM, 4 h): 0.22 ± 0.003 ng/mL
15d-PGJ2 ([3]; 1 nM, 24 h): 0.66 ± 0.013^a ng/mL
PGD2 ([3]; 1 nM, 24 h): 0.21 ± 0.009^a ng/mL
PGE2 ([3]; 1 nM, 24 h): 0.22 ± 0.003 ng/mL
15d-PGJ2 ([3]; 10 nM, 4 h): 0.40 ± 0.014 ng/mL
PGD2 ([3]; 10 nM, 4 h): 0.14 ± 0.001 ng/mL
PGE2 ([3]; 10 nM, 4 h): 0.22 ± 0.013 ng/mL
15d-PGJ2 ([3]; 10 nM, 24 h): 0.62 ± 0.008^a ng/mL
PGD2 ([3]; 10 nM, 24 h): 0.24 ± 0.001^a ng/mL
PGE2 ([3]; 10 nM, 24 h): 0.24 ± 0.002 ng/mL
15d-PGJ2 ([3]; 100 nM, 4 h): 0.42 ± 0.030 ng/mL
PGD2 ([3]; 100 nM, 4 h): 0.19 ± 0.008 ng/mL
PGE2 ([3]; 100 nM, 4 h): 0.22 ± 0.002 ng/mL
15d-PGJ2 ([3]; 100 nM, 24 h): 0.56 ± 0.020^a ng/mL
PGD2 ([3]; 100 nM, 24 h): 0.34 ± 0.025^a ng/mL
PGE2 ([3]; 100 nM, 24 h): 0.24 ± 0.004 ng/mL
